# In patent US20250230193A1, “CYCLIC COMPOUND HAVING SELECTIVE KRAS INHIBITORY EFFECT ON HRAS AND NRAS” (CHUGAI SEIYAKU KABUSHIKI KAISHA, priority 2022, published 2025):
# Where a SMILES comes first, the peptide text is derived from it. Bridges are numbered along the chain shown (N, C = ends). [ ]: non-standard residue; d: D form. The star is where a group is joined. hPhe(3-Cl-4-CF3) = N[C@@H](CCc1ccc(C(F)(F)F)c(Cl)c1)C(=O)O; NPrPhe(4-CF3) = CCCN[C@@H](Cc1ccc(C(F)(F)F)cc1)C(=O)O; Abu(4,4,4-F3) = N[C@@H](CC(F)(F)F)C(=O)O; Morpholine(3S-CO) = O=C(O)[C@@H]1COCCN1; NMeGly(cPent) = CN[C@H](C(=O)O)C1CCCC1; Gly(cPent) = N[C@H](C(=O)O)C1CCCC1; Gly(cBu) = N[C@H](C(=O)O)C1CCC1; NMeD = CN[C@@H](CC(=O)O)C(=O)O; NMeL = CN[C@@H](CC(C)C)C(=O)O; Morpholide = C1CN(*)CCO1; NMeA = CN[C@@H](C)C(=O)O; Ac5c = NC1(C(=O)O)CCCC1; Aze = O=C(O)[C@@H]1CCN1; NcPrGly = O=C(O)CNC1CC1; Abu = CC[C@H](N)C(=O)O; NPrGly = CCCNCC(=O)O; Sar = CNCC(=O)O
# Key:
# [1] = target: GDP-bound NRAS wild-type protein (Homo sapiens, UniProt P01111); assay: Binding to NRAS by surface plasmon resonance (SPR), Single Cycle Kinetics; settings: KD ratio NRAS/KRAS, SPR
# GDP-bound NRAS wild-type protein, sequence (P01111 whole entry): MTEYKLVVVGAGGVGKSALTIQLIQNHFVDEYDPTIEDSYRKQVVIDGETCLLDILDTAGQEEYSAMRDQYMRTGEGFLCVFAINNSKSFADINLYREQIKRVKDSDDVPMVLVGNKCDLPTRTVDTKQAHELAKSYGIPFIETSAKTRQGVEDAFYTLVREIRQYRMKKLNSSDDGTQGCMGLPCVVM
# [2] = target: GDP-bound HRAS wild-type protein (Homo sapiens, UniProt P01112); assay: Binding to HRAS by surface plasmon resonance (SPR), Single Cycle Kinetics; settings: KD ratio HRAS/KRAS, SPR
# GDP-bound HRAS wild-type protein, sequence (P01112 whole entry): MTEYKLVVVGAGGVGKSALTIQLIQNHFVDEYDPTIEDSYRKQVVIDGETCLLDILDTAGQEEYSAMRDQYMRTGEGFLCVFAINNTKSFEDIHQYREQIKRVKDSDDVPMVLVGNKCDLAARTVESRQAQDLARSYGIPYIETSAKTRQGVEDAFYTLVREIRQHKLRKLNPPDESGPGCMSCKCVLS
SMILES,NRAS/KRAS (ratio of KD for GDP-bound NRAS wild-type to KD for KRAS) [1],HRAS/KRAS (ratio of KD for GDP-bound HRAS wild-type to KD for KRAS) [2]
CCCN1C(=O)CN(C)C(=O)CN(C)C(=O)[C@H]([C@@H](C)CC)NC(=O)[C@H](CC(C)C)N(C)C(=O)C[C@@H](C(=O)N2CCOCC2)N(C)C(=O)[C@H](C2CCCC2)N(C)C(=O)C2(CCCC2)NC(=O)[C@@H]2COCCN2C(=O)[C@H](CCc2ccc(C(F)(F)F)c(Cl)c2)NC(=O)CN(C)C(=O)[C@@H]1Cc1ccc(C(F)(F)F)cc1 [PP0265] ([NMeL]I[Sar][Sar][NPrPhe(4-CF3)][Sar][hPhe(3-Cl-4-CF3)][Morpholine(3S-CO)][Ac5c][NMeGly(cPent)][NMeD]-Morpholide; lactam N-11),B (a compound having 3 or more and less than 10 is denoted as B),C (A compound having a KD ratio of 0.1 or more and less than 3 is denoted as C)
CCCN1C(=O)CN(C)C(=O)CN(C)C(=O)[C@H]([C@@H](C)CC)NC(=O)[C@H](CC(C)C)N(C)C(=O)C[C@@H](C(=O)N2CCOCC2)N(C)C(=O)[C@H](C2CCCC2)N(C)C(=O)C2(CCCC2)NC(=O)CN(C)C(=O)[C@H](CCc2ccc(C(F)(F)F)c(Cl)c2)NC(=O)CN(C)C(=O)[C@@H]1Cc1ccc(C(F)(F)F)cc1 [PP0266] ([NMeL]I[Sar][Sar][NPrPhe(4-CF3)][Sar][hPhe(3-Cl-4-CF3)][Sar][Ac5c][NMeGly(cPent)][NMeD]-Morpholide; lactam N-11),B (a compound having 3 or more and less than 10 is denoted as B),C (A compound having a KD ratio of 0.1 or more and less than 3 is denoted as C)
CCCN1CC(=O)NC2(CCCC2)C(=O)N(C)[C@@H](C2CCCC2)C(=O)N(C)[C@H](C(=O)N2CCOCC2)CC(=O)N(C)[C@@H](CC(C)C)C(=O)N[C@@H]([C@@H](C)CC)C(=O)N(C)CC(=O)N(C)CC(=O)N(CCC)[C@@H](Cc2ccc(C(F)(F)F)cc2)C(=O)N(C)CC(=O)N[C@@H](CCc2ccc(C(F)(F)F)c(Cl)c2)C1=O [PP0267] ([NMeL]I[Sar][Sar][NPrPhe(4-CF3)][Sar][hPhe(3-Cl-4-CF3)][NPrGly][Ac5c][NMeGly(cPent)][NMeD]-Morpholide; lactam N-11),B (a compound having 3 or more and less than 10 is denoted as B),B (a compound having 3 or more and less than 10 is denoted as B)
CCCN1C(=O)[C@@H]2CCN2C(=O)[C@H](C)N(C)C(=O)[C@H](CC)NC(=O)[C@H](CC(C)C)N(C)C(=O)C[C@@H](C(=O)N2CCOCC2)N(C)C(=O)[C@H](C2CCCC2)N(C)C(=O)C2(CCCC2)NC(=O)[C@@H]2CCCN2C(=O)[C@H](CCc2ccc(C(F)(F)F)c(Cl)c2)NC(=O)CN(C)C(=O)[C@@H]1Cc1ccc(C(F)(F)F)cc1 [PP0269] ([NMeL][Abu][NMeA][Aze][NPrPhe(4-CF3)][Sar][hPhe(3-Cl-4-CF3)]P[Ac5c][NMeGly(cPent)][NMeD]-Morpholide; lactam N-11),C (A compound having a KD ratio of 0.1 or more and less than 3 is denoted as C),B (a compound having 3 or more and less than 10 is denoted as B)
"CCCN1C(=O)[C@@H]2CCN2C(=O)[C@H](C)N(C)C(=O)[C@H](CC(F)(F)F)NC(=O)[C@H](CC(C)C)N(C)C(=O)C[C@@H](C(=O)N2CCOCC2)N(C)C(=O)[C@H](C2CCCC2)N(C)C(=O)C2(CCCC2)NC(=O)[C@@H]2CCCN2C(=O)[C@H](CCc2ccc(C(F)(F)F)c(Cl)c2)NC(=O)CN(C)C(=O)[C@@H]1Cc1ccc(C(F)(F)F)cc1 [PP0270] ([NMeL][Abu(4,4,4-F3)][NMeA][Aze][NPrPhe(4-CF3)][Sar][hPhe(3-Cl-4-CF3)]P[Ac5c][NMeGly(cPent)][NMeD]-Morpholide; lactam N-11)",C (A compound having a KD ratio of 0.1 or more and less than 3 is denoted as C),B (a compound having 3 or more and less than 10 is denoted as B)
CCCN1C(=O)[C@@H]2CCN2C(=O)[C@H](C)N(C)C(=O)[C@H](C2CCC2)NC(=O)[C@H](CC(C)C)N(C)C(=O)C[C@@H](C(=O)N2CCOCC2)N(C)C(=O)[C@H](C2CCCC2)N(C)C(=O)C2(CCCC2)NC(=O)[C@@H]2CCCN2C(=O)[C@H](CCc2ccc(C(F)(F)F)c(Cl)c2)NC(=O)CN(C)C(=O)[C@@H]1Cc1ccc(C(F)(F)F)cc1 [PP0271] ([NMeL][Gly(cBu)][NMeA][Aze][NPrPhe(4-CF3)][Sar][hPhe(3-Cl-4-CF3)]P[Ac5c][NMeGly(cPent)][NMeD]-Morpholide; lactam N-11),C (A compound having a KD ratio of 0.1 or more and less than 3 is denoted as C),B (a compound having 3 or more and less than 10 is denoted as B)
CCCN1C(=O)[C@@H]2CCN2C(=O)[C@H](C)N(C)C(=O)[C@H](C2CCCC2)NC(=O)[C@H](CC(C)C)N(C)C(=O)C[C@@H](C(=O)N2CCOCC2)N(C)C(=O)[C@H](C2CCCC2)N(C)C(=O)C2(CCCC2)NC(=O)[C@@H]2CCCN2C(=O)[C@H](CCc2ccc(C(F)(F)F)c(Cl)c2)NC(=O)CN(C)C(=O)[C@@H]1Cc1ccc(C(F)(F)F)cc1 [PP0272] ([NMeL][Gly(cPent)][NMeA][Aze][NPrPhe(4-CF3)][Sar][hPhe(3-Cl-4-CF3)]P[Ac5c][NMeGly(cPent)][NMeD]-Morpholide; lactam N-11),C (A compound having a KD ratio of 0.1 or more and less than 3 is denoted as C),B (a compound having 3 or more and less than 10 is denoted as B)
CCCN1C(=O)[C@@H]2CCN2C(=O)CN(C2CC2)C(=O)[C@H]([C@@H](C)CC)NC(=O)[C@H](CC(C)C)N(C)C(=O)C[C@@H](C(=O)N2CCOCC2)N(C)C(=O)[C@H](C2CCCC2)N(C)C(=O)C2(CCCC2)NC(=O)[C@@H]2CCCN2C(=O)[C@H](CCc2ccc(C(F)(F)F)c(Cl)c2)NC(=O)CN(C)C(=O)[C@@H]1Cc1ccc(C(F)(F)F)cc1 [PP0273] ([NMeL]I[NcPrGly][Aze][NPrPhe(4-CF3)][Sar][hPhe(3-Cl-4-CF3)]P[Ac5c][NMeGly(cPent)][NMeD]-Morpholide; lactam N-11),C (A compound having a KD ratio of 0.1 or more and less than 3 is denoted as C),B (a compound having 3 or more and less than 10 is denoted as B)
CCCN1CC(=O)N2CC[C@H]2C(=O)N(CCC)[C@@H](Cc2ccc(C(F)(F)F)cc2)C(=O)N(C)CC(=O)N[C@@H](CCc2ccc(C(F)(F)F)c(Cl)c2)C(=O)N2CCC[C@H]2C(=O)NC2(CCCC2)C(=O)N(C)[C@@H](C2CCCC2)C(=O)N(C)[C@H](C(=O)N2CCOCC2)CC(=O)N(C)[C@@H](CC(C)C)C(=O)N[C@@H]([C@@H](C)CC)C1=O [PP0274] ([NMeL]I[NPrGly][Aze][NPrPhe(4-CF3)][Sar][hPhe(3-Cl-4-CF3)]P[Ac5c][NMeGly(cPent)][NMeD]-Morpholide; lactam N-11),C (A compound having a KD ratio of 0.1 or more and less than 3 is denoted as C),B (a compound having 3 or more and less than 10 is denoted as B)
